Here are results for 17 compounds from patent US12060349B2, “Glucosylceramide synthase inhibitors” (Genzyme Corporation, priority 2012, dated 2024).

In general, IC50 refers to the concentration at which inhibition is half-maximal.

Read-outs that look alike come from different tables or passages of the source.

Experiment [1] concerns the target T1, glucosylceramide synthase (Homo sapiens, UniProt Q16739).
T1 construct: Microsomes were isolated from A375 human melanoma cells; endogenous in cells; host or cells: A375 human melanoma cells (microsomal fraction, 100,000 g pellet)
T1 sequence (Q16739 1-394): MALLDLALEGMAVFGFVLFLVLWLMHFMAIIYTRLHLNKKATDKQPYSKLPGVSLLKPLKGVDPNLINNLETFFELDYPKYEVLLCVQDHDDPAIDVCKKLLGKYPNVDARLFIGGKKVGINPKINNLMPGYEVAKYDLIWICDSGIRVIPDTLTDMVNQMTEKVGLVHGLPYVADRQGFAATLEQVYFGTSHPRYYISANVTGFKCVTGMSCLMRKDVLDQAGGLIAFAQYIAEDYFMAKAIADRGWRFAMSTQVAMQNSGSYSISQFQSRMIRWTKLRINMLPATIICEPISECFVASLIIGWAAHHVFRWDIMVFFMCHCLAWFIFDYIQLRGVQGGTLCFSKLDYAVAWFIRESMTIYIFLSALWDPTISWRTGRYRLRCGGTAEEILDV
Kind of experiment: microsomal assay measuring conversion of ceramide to glucosylceramide by HPLC (GCS IC50). The format is biochemical. The note with it: concentration causing 50% inhibition of glucosylceramide synthase activity. In a few lines: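 IC50 is the compound concentration halving glucosylceramide synthase activity. Activity was measured in microsomes, with HPLC quantifying glucosylceramide formed from ceramide.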

The subject of experiment [2] is GM3 expression on the cell surface, B16 mouse melanoma cells. Kind of experiment: cell based phenotypic assay, cell surface GM3 by antibody mediated immunofluorescence, B16 (GM3 B16 IC50). To be noted: B16 mouse melanoma cells, 50% inhibition of GM3 expression on the cell surface, read-out: GM3 B16 IC50. In outline: (§1)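 Two melanoma lines, mouse B16 and human C32, were treated and surface GM3 quantified by antibody immunofluorescence for IC50. A parallel viability readout gives the concentration killing 50% of cells, with values over 10 indicating no cell death.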

Experiment [3] deals with GM3 expression on the cell surface, C32 human melanoma cells. Kind of experiment: cell based phenotypic assay, cell surface GM3 by antibody mediated immunofluorescence, C32 (GM3 C32 IC50). To be noted: C32 human melanoma cells, 50% inhibition of GM3 expression on the cell surface, read-out: GM3 C32 IC50. In a few lines:
as §1

The subject of experiment [4] is B16 mouse melanoma cells. The experiment is described as follows: cell viability in the B16 cell-based assay (Viability, B16 IC50). To be noted: concentration causing 50% cell death, values greater than 10 represent a lack of cell death, read-out: Viability, B16 IC50. In outline: (§2)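 Viability readouts were run alongside the GM3 cell-surface assay in the same B16 and C32 cultures. A figure above 10 indicates no cell death.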

Experiment [5] concerns C32 human melanoma cells. The experiment is described as follows: cell viability in the C32 cell-based assay (Viability, C32 IC50). To be noted: concentration causing 50% cell death, values greater than 10 represent a lack of cell death, read-out: Viability, C32 IC50. In outline: as §2

In the case of `CC1(NC(=O)C2(F)CCN(c3nccc(COc4ccc(F)cc4)n3)CC2)CN2CCC1CC2` (stereo not shown) [Example 135, 4-Fluoro-1-(4-((4-fluorophenoxy)methyl)pyrimidin-2-yl)-N-(3-methylquinuclidin-3-yl)piperidine-4-carboxamide], the IC50 worked out at 1.38 nM in experiment [1]; 31.7 nM in experiment [2] (Mus musculus); 0.132 nM in experiment [3] (Homo sapiens); 8250 nM in experiment [4] (Mus musculus, B16, B16 cells); 46.4 nM in experiment [5] (Homo sapiens, C32, C32 cells).

For `CC1(NC(=O)C2(F)CCN(c3nccc(-c4ccc(F)cc4)n3)CC2)CCN2CCC1CC2` (stereo not shown) [Example 94, 4-Fluoro-1-(4-(4-fluorophenyl)pyrimidin-2-yl)-N-(4-methyl-1-azabicyclo[3.2.2]nonan-4-yl)piperidine-4-carboxamide], the IC50 in experiment [1] was determined as 0.736 nM; in experiment [2] (Mus musculus), 14.4 nM; in experiment [3] (Homo sapiens) it was 0.0964 nM; in experiment [4] (Mus musculus, B16, B16 cells), 2100 nM; in experiment [5] (Homo sapiens, C32, C32 cells) it was 46.4 nM.

As for `CCCC1(NC(=O)NC(C)(C)c2ccc(-c3ccc(S(=O)(=O)CC4(COC)CC4)cc3)cc2)CN2CCC1CC2` (stereo not shown) [Example 251, 1-(2-(4′-(((1-(Methoxymethyl)cyclopropyl)methyl)sulfonyl)-[1,1′-biphenyl]-4-yl)propan-2-yl)-3-(3-propylquinuclidin-3-yl)urea], the 50% inhibitory concentration (IC50) is 21 nM in experiment [1]; 47.5 nM in experiment [2] (Mus musculus); 5.01 nM in experiment [3] (Homo sapiens); not below 10000 nM in experiment [4] (Mus musculus, B16, B16 cells); 1000 nM in experiment [5] (Homo sapiens, C32, C32 cells).

`CCC1(NC(=O)NC(C)(C)c2ccc(-c3ccc(C(=O)N4CCCCC4)cc3)cc2)CN2CCC1CC2` (stereo not shown) [Example 264, 1-(3-Ethylquinuclidin-3-yl)-3-(2-(4′-(piperidine-1-carbonyl)biphenyl-4-yl)propan-2-yl)urea]: the IC50 in experiment [1] is 13.7 nM; in experiment [2] (Mus musculus) it was 67.4 nM; in experiment [3] (Homo sapiens), 2.13 nM; in experiment [4] (Mus musculus, B16, B16 cells) it was not below 10000 nM; in experiment [5] (Homo sapiens, C32, C32 cells), 1000 nM.

Consider `CC1(NC(=O)C2(F)CCN(c3ncc(OCc4ccc(F)cc4)cn3)CC2)CCN2CCC1CC2` (stereo not shown) [Example 132, 4-Fluoro-1-(5-((4-fluorobenzyl)oxy)pyrimidin-2-yl)-N-(4-methyl-1-azabicyclo[3.2.2]nonan-4-yl)piperidine-4-carboxamide], for which the IC50 amounted to 10.7 nM in experiment [1]; 115 nM in experiment [2] (Mus musculus); 2.65 nM in experiment [3] (Homo sapiens); 4590 nM in experiment [4] (Mus musculus, B16, B16 cells); 1000 nM in experiment [5] (Homo sapiens, C32, C32 cells).

For `COCCOc1ccc(-c2ccc(C(C)(C)NC(=O)OC3CCN4CCC3CC4)nc2)cc1` (single isomer, unassigned) [Example 349, 1-Azabicyclo[3.2.2]nonan-4-yl 2-(5-(4-(2-methoxyethoxy)phenyl)pyridin-2-yl)propan-2-ylcarbamate], the IC50 was 250 nM in experiment [1]; 233 nM in experiment [2]; 14.4 nM in experiment [3]; not below 10000 nM in experiment [4] (B16 cells); 1000 nM in experiment [5] (C32 cells).

On to `CC(C)c1cccc(N2CCN(C(=O)NC3(C)CCN4CCC3CC4)CC2)c1` (stereo not shown) [Example 28, 4-(3-Isopropylphenyl)-N-(4-methyl-1-azabicyclo[3.2.2]nonan-4-yl)piperazine-1-carboxamide], for which the 50% inhibitory concentration (IC50) in experiment [1] is 1590 nM; in experiment [2] (Mus musculus), 1440 nM; in experiment [3] (Homo sapiens) it was 86.6 nM; in experiment [4] (Mus musculus, B16, B16 cells), not below 10000 nM; in experiment [5] (Homo sapiens, C32, C32 cells), 3160 nM.

For `COCCCOc1ccc(-c2ccnc(N3CCC(F)(C(=O)NC4(C)CN5CCC4CC5)CC3)n2)cc1` (stereo not shown) [Example 76, 4-Fluoro-1-(4-(4-(3-methoxypropoxy)phenyl)pyrimidin-2-yl)-N-(3-methylquinuclidin-3-yl)piperidine-4-carboxamide], the concentration for half-maximal inhibition (IC50) in experiment [1] was 1.34 nM; in experiment [2] (Mus musculus), 58.7 nM; in experiment [3] (Homo sapiens) it was 0.141 nM; in experiment [4] (Mus musculus, B16, B16 cells) it was 3870 nM; in experiment [5] (Homo sapiens, C32, C32 cells), 1000 nM.

Take `COCc1ccc(-c2nc(N3CCC(C(=O)NC4(C)CCN5CCC4CC5)CC3)ncc2F)cc1` (stereo not shown) [Example 60, 1-(5-Fluoro-4-(4-(methoxymethyl)phenyl)pyrimidin-2-yl)-N-(4-methyl-1-azabicyclo[3.2.2]nonan-4-yl)piperidine-4-carboxamide]: the IC50 in experiment [1] stood at 1.68 nM; in experiment [2] (Mus musculus) it was 15.5 nM; in experiment [3] (Homo sapiens) it was 0.1 nM; in experiment [4] (Mus musculus, B16, B16 cells) it was 3500 nM; in experiment [5] (Homo sapiens, C32, C32 cells), 46.4 nM.

Regarding `O=C(NC1CCN2CCC1CC2)N1CCN(c2ccccc2)CC1` (stereo not shown) [Example 8, N-(1-Azabicyclo[3.2.2]nonan-4-yl)-4-phenylpiperazine-1-carboxamide], the IC50 in experiment [1] is 3310 nM; in experiment [2], more than 10000 nM; in experiment [3] it was 518 nM; in experiment [4] (Mus musculus, B16 cells), not below 10000 nM; in experiment [5] (Homo sapiens, C32 cells), not below 10000 nM.

`CC(C)(C)CCS(=O)(=O)c1ccc(C#CC(C)(C)NC(=O)OC2CCN3CCC2CC3)cc1` (stereo not shown) [Example 335, 1-Azabicyclo[3.2.2]nonan-4-yl (4-(4-((3,3-dimethylbutyl)sulfonyl)phenyl)-2-methylbut-3-yn-2-yl)carbamate]: the IC50 in experiment [1] turned out to be 14.6 nM; in experiment [2] (Mus musculus), 193 nM; in experiment [3] (Homo sapiens) it was 4.32 nM; in experiment [4] (Mus musculus, B16, B16 cells), 2150 nM; in experiment [5] (Homo sapiens, C32, C32 cells) it was 1000 nM.

For `CC1(NC(=O)N2CCN(c3cccc(-c4ncccn4)c3)CC2)CCN2CCC1CC2` (stereo not shown) [Example 26, N-(4-Methyl-1-azabicyclo[3.2.2]nonan-4-yl)-4-(3-(pyrimidin-2-yl)phenyl)piperazine-1-carboxamide], the IC50 in experiment [1] was 6900 nM; in experiment [2] (Mus musculus) it was more than 10000 nM; in experiment [3] (Homo sapiens), 360 nM; in experiment [4] (Mus musculus, B16, B16 cells) it was not below 10000 nM; in experiment [5] (Homo sapiens, C32, C32 cells) it was not below 10000 nM.

Turning to `CCC1(NC(=O)NC(C)(C)C#Cc2ccc(S(=O)(=O)CCC(C)(C)C)cc2)CN2CCC1CC2` (stereo not shown) [Example 338, 1-(4-(4-((3,3-Dimethylbutyl)sulfonyl)phenyl)-2-methylbut-3-yn-2-yl)-3-(3-ethylquinuclidin-3-yl)urea], the half-maximal inhibitory concentration (IC50) in experiment [1] was found to be 4.45 nM; in experiment [2] (Mus musculus) it was 72.1 nM; in experiment [3] (Homo sapiens) it was 0.984 nM; in experiment [4] (Mus musculus, B16, B16 cells), 2150 nM; in experiment [5] (Homo sapiens, C32, C32 cells) it was 1000 nM.

`CCC1(NC(=O)NC2(c3ccc(-c4ccc(COCc5cncnc5)cc4)cc3)CC2)CN2CCC1CC2` (stereo not shown) [Example 220, 1-(3-Ethylquinuclidin-3-yl)-3-(1-(4′-((pyrimidin-5-ylmethoxy)methyl)-[1,1′-biphenyl]-4-yl)cyclopropyl)urea]: the IC50 in experiment [1] is 51.6 nM; in experiment [2] (Mus musculus), 114 nM; in experiment [3] (Homo sapiens) it was 6.06 nM; in experiment [4] (Mus musculus, B16, B16 cells), not below 10000 nM; in experiment [5] (Homo sapiens, C32, C32 cells), 3160 nM.

For the compound `CC1(COc2ccc(-c3ccc(C(C)(C)NC(=O)N4CCN5CCC4CC5)cc3)cc2)COC1` [Example 193, N-(2-(4′-((3-Methyloxetan-3-yl)methoxy)-[1,1′-biphenyl]-4-yl)propan-2-yl)-1,4-diazabicyclo[3.2.2]nonane-4-carboxamide], the IC50 was 297 nM in experiment [1]; 318 nM in experiment [2] (Mus musculus); 44.7 nM in experiment [3] (Homo sapiens); not below 10000 nM in experiment [4] (Mus musculus, B16, B16 cells); not below 10000 nM in experiment [5] (Homo sapiens, C32, C32 cells).

In the case of `COCCCOc1cnc(-c2ccc(C(C)(C)NC(=O)OC3CCN4CCC3CC4)cc2)cn1` (stereo not shown) [Example 321, 1-Azabicyclo[3.2.2]nonan-4-yl (2-(4-(5-(3-methoxypropoxy)pyrazin-2-yl)phenyl)propan-2-yl)carbamate], the IC50 was 46.1 nM in experiment [1]; 108 nM in experiment [2] (Mus musculus); 6.39 nM in experiment [3] (Homo sapiens); not below 10000 nM in experiment [4] (Mus musculus, B16, B16 cells); 1000 nM in experiment [5] (Homo sapiens, C32, C32 cells).

In the case of `CN(C)C(=O)c1ccc(-c2ccc(C(C)(C)NC(=O)N3CCN4CCC3CC4)cc2)cc1` [Example 260, N-(2-(4′-(Dimethylcarbamoyl)biphenyl-4-yl)propan-2-yl)-1,4-diazabicyclo[3.2.2]nonane-4-carboxamide], the concentration for half-maximal inhibition (IC50) is 8550 nM in experiment [1]; 1640 nM in experiment [2] (Mus musculus); 302 nM in experiment [3] (Homo sapiens); not below 10000 nM in experiment [4] (Mus musculus, B16, B16 cells); not below 10000 nM in experiment [5] (Homo sapiens, C32, C32 cells).
